Measurements published in patent publication US9845292B2 (Max-Planck-Gesellschaft zur Förderung der Wissenschaften …, priority 2013, dated 2017).

Experiments:
FKBP52 = molecular target: T1, FKBP52 (Homo sapiens, UniProt Q02790); assay: Fluorescence polarization binding assay, FK1-domain of FKBP52WT with tracer F2 (selectivity FKBP51 vs. FKBP52); conditions: selectivity factor over FKBP52; compounds B01-C25
T1 construct: Purified FK1-domains of FKBP51WT (4.5 nM) with F4 (3 nM), FKBP52WT (400 nM) with F2 (20 nM); implied by Ni-NTA purification) (N); made in house; host or cells: E. coli BL21(DE3)pLysS
T1 sequence (Q02790 50-138 limits assumed): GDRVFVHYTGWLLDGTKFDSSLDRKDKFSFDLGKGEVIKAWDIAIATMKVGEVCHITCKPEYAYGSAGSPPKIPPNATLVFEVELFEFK
Experimental: (§1) The target protein was also diluted in this assay buffer at double the highest concentration required for the final sample. This protein stock was used for a 1:1 serial dilution.
(§2) The inventive compound was dissolved in DMSO to reach a 100-times concentrated stock solution. This was used for a 1:1 serial dilution in DMSO.
(§3) For FKBP12, −51, and −52 the binding assays were performed in duplicates in the plate format.
(§4) The competition curves were analyzed by using SigmaPlot9. Data were fitted to a four parameter logistic curve to deduce the IC50 values. […] A=(Amax−Amin)/[L]t×(([L]t×((2×((Klig+Kcomp+[L]t+[I]t−[R]t)^2−3×(Kcomp×([L]t−[R]t)+Klig×([I]t−[R]t)+Klig×Kcomp))^0.5×COS(ARCCOS((−2×(Klig+Kcomp+[L]t+[I]t−[R]t)^3+9×(Klig+Kcomp+[L]t+[I]t−[R]t)×(Kcomp×([L]t−[R]t)+Klig×([I]t−[R]t)+Klig×Kcomp)−27×(−1×Klig×Kcomp×[R]t))/(2×((((Klig+Kcomp+[L]t+[I]t−[R]t)^2−3×(Kcomp×([L]t−[R]t)+Klig×([I]t−[R]t)+Klig×Kcomp))^3)^0.5)))/3))−(Klig+Kcomp+[L]t+[I]t−[R]t)))/((3×Klig)+((2×((Klig+Kcomp+[L]t+[I]t−[R]t)^2−3×(Kcomp×([L]t−[R]t)+Klig×([I]t−[R]t)+Klig×Kcomp))^0.5×COS(ARCCOS((−2×(Klig+Kcomp+[L]t+[I]t−[R]t)^3+9×(Klig+Kcomp+[L]t+[I]t−[R]t)×(Kcomp×([L]t−[R]t)+Klig×([I]t−[R]t)+Klig×Kcomp)−27×(−1×Klig×Kcomp×[R]t))/(2×((((Klig+Kcomp+[L]t+[I]t−[R]t)^2−3×(Kcomp×([L]t−[R]t)+Klig×([I]t−[R]t)+Klig×Kcomp))^3)^0.5)))/3))−(Klig+Kcomp+[L]t+[I]t−[R]t))))+Amin
(§5) In this equation Klig and Kcomp stand for the Kd values of the used tracer or competing inhibitor, [I]t is referring to the total concentration of the titrated inhibitor.
The Selectivity of the Compounds was Classified by Ki(FKBP51)/Ki(FKBP52)
(§6) Inhibition constants were measured in a fluorescence polarization binding assay by titrating the compounds.

FKBP51 = molecular target: T2, FKBP51 (Homo sapiens, UniProt Q13451); assay: Fluorescence polarization binding assay, FK1-domain of FKBP51WT with tracer F4; design: Purified FK1-domains of FKBP51WT (4.5 nM) with F4 (3 nM), FKBP52WT (400 nM) with F2 (20 nM); made in house; host or cells: E. coli BL21(DE3)pLysS; conditions: compounds B01-C25; read-out: Affinity(Ki) for FKBP51
T2 sequence (Q13451 42-130 limits assumed): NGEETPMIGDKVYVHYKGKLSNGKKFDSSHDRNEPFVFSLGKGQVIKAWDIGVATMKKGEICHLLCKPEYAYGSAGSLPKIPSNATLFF
Experimental: as §1, §2, §3, §4, §5, §6

Row | Ki(FKBP51)/Ki(FKBP52) (FKBP52) | Ki (FKBP51) | Compound
1 | ++ (>50 ++) | 1 to 10 µM | COc1cc([C@@H](C(=O)N2CCCC[C@H]2C(=O)N[C@@H](CC(C)C)C(N)=O)C2CCCCC2)cc(OC)c1OC [Compound B30, (S)-N-((S)-1-amino-4-methyl-1-oxopentan-2-yl)-1-((S)-2-cyclohexyl-2-(3,4,5-trimethoxyphenyl)acetyl)piperidine-2-carboxamide]
2 | ++ (>50 ++) | 1 to 10 µM | COc1cc([C@@H](C(=O)N2CCCC[C@H]2C(=O)NC2(C(N)=O)CCCCC2)C2CCCCC2)cc(OC)c1OC [Compound B31, (S)-N-(1-carbamoylcyclohexyl)-1-((S)-2-cyclohexyl-2-(3,4,5-trimethoxyphenyl)acetyl)piperidine-2-carboxamide]
3 | ++ (>50 ++) | 10 to 50 µM | COc1cc([C@@H](C(=O)N2CCCC[C@H]2C(=O)NC2(C(N)=O)CCOCC2)C2CCCCC2)cc(OC)c1OC [Compound B32]
4 | +++ (>500 +++) | 1 to 10 µM | COc1cc([C@@H](C(=O)N2CCCC[C@H]2C(=O)NC2(C(=O)NCC(N)=O)CCCC2)C2CCCCC2)cc(OC)c1OC [Compound B33, (S)-N-(1-((2-amino-2-oxoethyl)carbamoyl)cyclopentyl)-1-((S)-2-cyclohexyl-2-(3,4,5-trimethoxyphenyl)acetyl)piperidine-2-carboxamide]
5 | ++ (>50 ++) | 10 to 50 µM | COc1cc([C@@H](C(=O)N2CCCC[C@H]2C(=O)N[C@H](Cc2c[nH]cn2)C(N)=O)C2CCCCC2)cc(OC)c1OC [Compound B34, (S)-N-((R)-1-amino-3-(1H-imidazol-4-yl)-1-oxopropan-2-yl)-1-((S)-2-cyclohexyl-2-(3,4,5-trimethoxyphenyl)acetyl)piperidine-2-carboxamide]
6 | + (>5 +) | 10 to 50 µM | COc1cc([C@@H](C(=O)N2CCCC[C@H]2C(=O)N[C@@H](Cc2c[nH]cn2)C(N)=O)C2CCCCC2)cc(OC)c1OC [Compound B35, (S)-N-((S)-1-amino-3-(1H-imidazol-4-yl)-1-oxopropan-2-yl)-1-((S)-2-cyclohexyl-2-(3,4,5-trimethoxyphenyl)acetyl)piperidine-2-carboxamide]
7 | ++ (>50 ++) | 1 to 10 µM | COC(=O)[C@@H]1CCCCN1C(=O)[C@H](c1cc(OC)c(OC)c(OC)c1)C1CCCCC1 [Compound C01, (S)-methyl 1-((S)-2-cyclohexyl-2-(3,4,5-trimethoxyphenyl)acetyl)piperidine-2-carboxylate]
8 | ++ (>50 ++) | 1 to 10 µM | CCOC(=O)[C@@H]1CCCCN1C(=O)[C@H](c1cc(OC)c(OC)c(OC)c1)C1CCCCC1 [Compound C02, (S)-ethyl 1-((S)-2-cyclohexyl-2-(3,4,5-trimethoxyphenyl)acetyl)piperidine-2-carboxylate]
9 | +++ (>500 +++) | 1 to 10 µM | CCCOC(=O)[C@@H]1CCCCN1C(=O)[C@H](c1cc(OC)c(OC)c(OC)c1)C1CCCCC1 [Compound C03, (S)-propyl 1-((S)-2-cyclohexyl-2-(3,4,5-trimethoxyphenyl)acetyl)piperidine-2-carboxylate]

The remaining lines, values behind:

Row | Compound | Ki(FKBP51)/Ki(FKBP52) (FKBP52) | Ki (FKBP51)
10 | CC[C@H](C)[C@H](NC(=O)[C@@H]1CCCCN1C(=O)[C@H](c1cc(OC)c(OC)c(OC)c1)C1CCCCC1)C(N)=O [Compound B14, (S)-N-((2S,3S)-1-amino-3-methyl-1-oxopentan-2-yl)-1-((S)-2-cyclohexyl-2-(3,4,5-trimethoxyphenyl)acetyl)piperidine-2-carboxamide] | ++ (>50 ++) | 1 to 10 µM
11 | CC[C@@H](C)[C@@H](NC(=O)[C@@H]1CCCCN1C(=O)[C@H](c1cc(OC)c(OC)c(OC)c1)C1CCCCC1)C(N)=O [Compound B15, (S)-N-((2R,3R)-1-amino-3-methyl-1-oxopentan-2-yl)-1-((S)-2-cyclohexyl-2-(3,4,5-trimethoxyphenyl)acetyl)piperidine-2-carboxamide] | ++ (>50 ++) | 1 to 10 µM
12 | COc1cc([C@@H](C(=O)N2CCCC[C@H]2C(=O)N[C@H](C(N)=O)C2CCCCC2)C2CCCCC2)cc(OC)c1OC [Compound B18, (S)-N-((S)-2-amino-1-cyclohexyl-2-oxoethyl)-1-((S)-2-cyclohexyl-2-(3,4,5-trimethoxyphenyl)acetyl)piperidine-2-carboxamide] | ++ (>50 ++) | 1 to 10 µM
13 | COc1cc([C@@H](C(=O)N2CCCC[C@H]2C(=O)N[C@H](CO)C(N)=O)C2CCCCC2)cc(OC)c1OC [Compound B21, (S)-N-((R)-1-amino-3-hydroxy-1-oxopropan-2-yl)-1-((S)-2-cyclohexyl-2-(3,4,5-trimethoxyphenyl)acetyl)piperidine-2-carboxamide] | ++ (>50 ++) | 1 to 10 µM
14 | COc1cc([C@@H](C(=O)N2CCCC[C@H]2C(=O)N[C@@H](CO)C(N)=O)C2CCCCC2)cc(OC)c1OC [Compound B22, (S)-N-((S)-1-amino-3-hydroxy-1-oxopropan-2-yl)-1-((S)-2-cyclohexyl-2-(3,4,5-trimethoxyphenyl)acetyl)piperidine-2-carboxamide] | ++ (>50 ++) | 1 to 10 µM
15 | COc1cc([C@@H](C(=O)N2CCCC[C@H]2C(=O)N[C@@H](CCC(N)=O)C(N)=O)C2CCCCC2)cc(OC)c1OC [Compound B23, (S)-2-((S)-1-((S)-2-cyclohexyl-2-(3,4,5-trimethoxyphenyl)acetyl)piperidine-2-carboxamido)pentanediamide] | + (>5 +) | 10 to 50 µM
16 | COc1cc([C@@H](C(=O)N2CCCC[C@H]2C(=O)N[C@H](CCC(N)=O)C(N)=O)C2CCCCC2)cc(OC)c1OC [Compound B24, (R)-2-((S)-1-((S)-2-cyclohexyl-2-(3,4,5-trimethoxyphenyl)acetyl)piperidine-2-carboxamido)pentanediamide] | ++ (>50 ++) | 1 to 10 µM
17 | COc1cc([C@@H](C(=O)N2CCCC[C@H]2C(=O)NC(C)(C)CC(N)=O)C2CCCCC2)cc(OC)c1OC [Compound B25, (S)-N-(4-amino-2-methyl-4-oxobutan-2-yl)-1-((S)-2-cyclohexyl-2-(3,4,5-trimethoxyphenyl)acetyl)piperidine-2-carboxamide] | +++ (>500 +++) | 1 to 10 µM
18 | COc1cc([C@@H](C(=O)N2CCCC[C@H]2C(=O)NC2(C(N)=O)CC2)C2CCCCC2)cc(OC)c1OC [Compound B26, (S)-N-(1-carbamoylcyclopropyl)-1-((S)-2-cyclohexyl-2-(3,4,5-trimethoxyphenyl)acetyl)piperidine-2-carboxamide] | ++ (>50 ++) | 10 to 50 µM
19 | COc1cc([C@@H](C(=O)N2CCCC[C@H]2C(=O)NC2(C(N)=O)CCC2)C2CCCCC2)cc(OC)c1OC [Compound B27, (S)-N-(1-carbamoylcyclobutyl)-1-((S)-2-cyclohexyl-2-(3,4,5-trimethoxyphenyl)acetyl)piperidine-2-carboxamide] | ++ (>50 ++) | 1 to 10 µM
20 | COc1cc([C@@H](C(=O)N2CCCC[C@H]2C(=O)NC2(C(N)=O)CCCC2)C2CCCCC2)cc(OC)c1OC [Compound B28, (S)-N-(1-carbamoylcyclopentyl)-1-((S)-2-cyclohexyl-2-(3,4,5-trimethoxyphenyl)acetyl)piperidine-2-carboxamide] | ++++ (>5000 ++++) | 0.1 to 1 µM
21 | COc1cc([C@@H](C(=O)N2CCCC[C@H]2C(=O)NCCC(N)=O)C2CCCCC2)cc(OC)c1OC [Compound B29, (S)-N-(3-amino-3-oxopropyl)-1-((S)-2-cyclohexyl-2-(3,4,5-trimethoxyphenyl)acetyl)piperidine-2-carboxamide] | ++ (>50 ++) | 1 to 10 µM
